Experimental data reported in ChEMBL document CHEMBL1201862, “PubChem BioAssay data set” (2004).
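1) Cells in 96-well plates. 2) Compound, 48 h, 5 concentrations. 3) Linear interpolation between surrounding doses. 4) Unreached endpoint = highest concentration. Abbreviation: GI50, concentration required for 50% inhibition of growth.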 Active and inactive are the calls of the source. Rule as the data show it: active = GI50 up to about 1.1 µM and inactive = higher.

Assays:
Experiment in all cases: inhibition of tumour cell growth, NCI panel, 48 h
786-0 = system: 786-0
A498 = system: A498
A549 = system: A549
ACHN = system: ACHN
BT-549 = system: BT-549
CAKI-1 = system: CAKI-1
CCRF-CEM = system: CCRF-CEM
COLO 205 = system: COLO 205
DU-145 = system: DU-145
EKVX = system: EKVX
HCC 2998 = system: HCC 2998
HCT-116 = system: HCT-116
HCT-15 = system: HCT-15
HL-60 = system: HL-60
HOP-62 = system: HOP-62
HT-29 = system: HT-29
IGROV-1 = system: IGROV-1
K562 = system: K562
KM12 = system: KM12
LOX IMVI = system: LOX IMVI
M14 = system: M14
MCF7 = system: MCF7
MDA-MB-231 = system: MDA-MB-231
MDA-MB-435 = system: MDA-MB-435
MDA-N = system: MDA-N
MOLT-4 = system: MOLT-4
Malme-3M = system: Malme-3M
NCI-H226 = system: NCI-H226
NCI-H23 = system: NCI-H23
NCI-H460 = system: NCI-H460
NCI/ADR-RES = system: NCI/ADR-RES
OVCAR-3 = system: OVCAR-3
OVCAR-4 = system: OVCAR-4
OVCAR-5 = system: OVCAR-5
OVCAR-8 = system: OVCAR-8
PC-3 = system: PC-3
RPMI-8226 = system: RPMI-8226
RXF 393 = system: RXF 393
SF-268 = system: SF-268
SF-295 = system: SF-295
SF-539 = system: SF-539
SK-MEL-28 = system: SK-MEL-28
SK-MEL-2 = system: SK-MEL-2
SK-MEL-5 = system: SK-MEL-5
SK-OV-3 = system: SK-OV-3
SN12C = system: SN12C
SNB-19 = system: SNB-19
SNB-75 = system: SNB-75
SW-620 = system: SW-620
T47D = system: T47D
TK-10 = system: TK-10
U-251 = system: U-251
UACC-257 = system: UACC-257
UACC-62 = system: UACC-62
UO-31 = system: UO-31
HOP-92 = system: HOP-92
NCI-H522 = system: NCI-H522
SR = system: SR

## COc1ccccc1NC(=S)Nc1cc(C)cc(C)n1
786-0
  GI50: > 100 µM (inactive)
A498
  GI50: > 100 µM (inactive)
A549
  GI50: > 100 µM (inactive)
ACHN
  GI50: > 100 µM (inactive)
BT-549
  GI50: > 100 µM (inactive)
CAKI-1
  GI50: > 100 µM (inactive)
CCRF-CEM
  GI50: > 100 µM (inactive)
COLO 205
  GI50: > 100 µM (inactive)
DU-145
  GI50: > 100 µM (inactive)
EKVX
  GI50: > 100 µM (inactive)
HCC 2998
  GI50: > 100 µM (inactive)
HCT-116
  GI50: > 100 µM (inactive)
HCT-15
  GI50: > 100 µM
HL-60
  GI50: > 100 µM (inactive)
HOP-62
  GI50: > 63 µM (inactive)
HT-29
  GI50: > 100 µM (inactive)
IGROV-1
  GI50: > 100 µM (inactive)
K562
  GI50: > 100 µM (inactive)
KM12
  GI50: > 100 µM (inactive)
LOX IMVI
  GI50: > 100 µM (inactive)
M14
  GI50: > 100 µM (inactive)
MCF7
  GI50: > 100 µM (inactive)
MDA-MB-231
  GI50: > 100 µM (inactive)
MDA-MB-435
  GI50: > 100 µM (inactive)
MDA-N
  GI50: > 100 µM (inactive)
MOLT-4
  GI50: > 100 µM (inactive)
Malme-3M
  GI50: > 100 µM (inactive)
NCI-H226
  GI50: > 100 µM (inactive)
NCI-H23
  GI50: > 100 µM (inactive)
NCI-H460
  GI50: > 100 µM (inactive)
NCI/ADR-RES
  GI50: > 100 µM (inactive)
OVCAR-3
  GI50: > 70.8 µM (inactive)
OVCAR-4
  GI50: > 100 µM (inactive)
OVCAR-5
  GI50: > 100 µM (inactive)
OVCAR-8
  GI50: > 100 µM (inactive)
PC-3
  GI50: > 89.9 µM (inactive)
RPMI-8226
  GI50: > 100 µM (inactive)
RXF 393
  GI50: > 100 µM (inactive)
SF-268
  GI50: > 100 µM (inactive)
SF-295
  GI50: > 100 µM (inactive)
SF-539
  GI50: > 100 µM (inactive)
SK-MEL-28
  GI50: > 100 µM (inactive)
SK-MEL-2
  GI50: > 100 µM (inactive)
SK-MEL-5
  GI50: > 100 µM (inactive)
SK-OV-3
  GI50: > 100 µM (inactive)
SN12C
  GI50: > 100 µM (inactive)
SNB-19
  GI50: > 100 µM (inactive)
SNB-75
  GI50: > 49.4 µM (inactive)
SW-620
  GI50: > 100 µM (inactive)
T47D
  GI50: > 100 µM (inactive)
TK-10
  GI50: > 100 µM (inactive)
U-251
  GI50: > 100 µM (inactive)
UACC-257
  GI50: > 100 µM (inactive)
UACC-62
  GI50: > 100 µM (inactive)
UO-31
  GI50: > 100 µM (inactive)

## O[C@@]12Cc3c([nH]c4ccccc34)[C@@H]3Oc4cccc5c4[C@@]31CCN(CC1CC1)[C@@H]2C5
A498
  GI50: 25.2 µM (inactive)
A549
  GI50: 27 µM (inactive)
ACHN
  GI50: 20.4 µM (inactive)
BT-549
  GI50: 19.8 µM (inactive)
CAKI-1
  GI50: 19.2 µM (inactive)
CCRF-CEM
  GI50: 11.3 µM (inactive)
COLO 205
  GI50: 31.4 µM (inactive)
DU-145
  GI50: 27 µM (inactive)
EKVX
  GI50: 24.5 µM (inactive)
HCC 2998
  GI50: 17.7 µM (inactive)
HCT-15
  GI50: 18.1 µM
HOP-62
  GI50: 31.8 µM (inactive)
HOP-92
  GI50: 12.4 µM (inactive)
HT-29
  GI50: 15.9 µM (inactive)
IGROV-1
  GI50: 24.9 µM (inactive)
K562
  GI50: 22.6 µM (inactive)
KM12
  GI50: 39.7 µM (inactive)
LOX IMVI
  GI50: 18.9 µM (inactive)
M14
  GI50: 23.7 µM (inactive)
MCF7
  GI50: 17.5 µM (inactive)
MDA-MB-231
  GI50: 25.7 µM (inactive)
MDA-MB-435
  GI50: 15.7 µM (inactive)
MDA-N
  GI50: 19.6 µM (inactive)
MOLT-4
  GI50: 19.6 µM (inactive)
Malme-3M
  GI50: 19.5 µM (inactive)
NCI-H23
  GI50: 30.7 µM (inactive)
NCI-H460
  GI50: 46.1 µM (inactive)
NCI-H522
  GI50: 22.8 µM (inactive)
NCI/ADR-RES
  GI50: 33.4 µM (inactive)
OVCAR-3
  GI50: 22.3 µM (inactive)
OVCAR-4
  GI50: 22.5 µM (inactive)
OVCAR-5
  GI50: 29 µM (inactive)
OVCAR-8
  GI50: 15.1 µM (inactive)
PC-3
  GI50: 17 µM (inactive)
RPMI-8226
  GI50: 19.4 µM (inactive)
SF-268
  GI50: 19.5 µM (inactive)
SF-539
  GI50: 20.9 µM (inactive)
SK-MEL-28
  GI50: 12.7 µM (inactive)
SK-MEL-2
  GI50: 26.5 µM (inactive)
SK-MEL-5
  GI50: 24.3 µM (inactive)
SN12C
  GI50: 21.7 µM (inactive)
SNB-19
  GI50: 33 µM (inactive)
SR
  GI50: 34 µM (inactive)
SW-620
  GI50: 11.4 µM (inactive)
TK-10
  GI50: 19.2 µM (inactive)
U-251
  GI50: 39.7 µM (inactive)
UACC-257
  GI50: 24.9 µM (inactive)
UACC-62
  GI50: 17.2 µM (inactive)
UO-31
  GI50: 18.9 µM (inactive)

## CC1(C)OC2OC(COC(=O)c3ccc(C#N)cc3)C3OC(C)(C)OC3C2O1 (stereo not drawn)
786-0
  GI50: > 75 µM (inactive)
A498
  GI50: > 75 µM (inactive)
A549
  GI50: > 75 µM (inactive)
ACHN
  GI50: > 75 µM (inactive)
BT-549
  GI50: > 75 µM (inactive)
CAKI-1
  GI50: > 75 µM (inactive)
CCRF-CEM
  GI50: 50.7 µM (inactive)
COLO 205
  GI50: > 75 µM (inactive)
DU-145
  GI50: > 75 µM (inactive)
EKVX
  GI50: > 75 µM (inactive)
HCC 2998
  GI50: > 75 µM (inactive)
HCT-116
  GI50: > 75 µM (inactive)
HCT-15
  GI50: > 75 µM
HOP-62
  GI50: > 75 µM (inactive)
HT-29
  GI50: > 75 µM (inactive)
IGROV-1
  GI50: > 75 µM (inactive)
K562
  GI50: > 75 µM (inactive)
KM12
  GI50: > 75 µM (inactive)
LOX IMVI
  GI50: > 75 µM (inactive)
M14
  GI50: > 75 µM (inactive)
MCF7
  GI50: > 75 µM (inactive)
MDA-MB-231
  GI50: > 75 µM (inactive)
MDA-MB-435
  GI50: > 75 µM (inactive)
MDA-N
  GI50: > 75 µM (inactive)
MOLT-4
  GI50: > 75 µM (inactive)
Malme-3M
  GI50: 61 µM (inactive)
NCI-H226
  GI50: > 75 µM (inactive)
NCI-H23
  GI50: > 75 µM (inactive)
NCI-H522
  GI50: > 75 µM (inactive)
NCI/ADR-RES
  GI50: > 75 µM (inactive)
OVCAR-3
  GI50: > 75 µM (inactive)
OVCAR-4
  GI50: > 75 µM (inactive)
OVCAR-5
  GI50: > 75 µM (inactive)
OVCAR-8
  GI50: > 75 µM (inactive)
PC-3
  GI50: > 75 µM (inactive)
RPMI-8226
  GI50: 57.8 µM (inactive)
RXF 393
  GI50: > 75 µM (inactive)
SF-268
  GI50: > 75 µM (inactive)
SF-295
  GI50: > 75 µM (inactive)
SF-539
  GI50: > 75 µM (inactive)
SK-MEL-28
  GI50: > 75 µM (inactive)
SK-MEL-2
  GI50: > 75 µM (inactive)
SK-MEL-5
  GI50: > 75 µM (inactive)
SK-OV-3
  GI50: > 75 µM (inactive)
SN12C
  GI50: > 75 µM (inactive)
SNB-19
  GI50: > 75 µM (inactive)
SNB-75
  GI50: > 75 µM (inactive)
SR
  GI50: > 75 µM (inactive)
SW-620
  GI50: > 75 µM (inactive)
TK-10
  GI50: > 75 µM (inactive)
U-251
  GI50: > 75 µM (inactive)
UACC-257
  GI50: > 75 µM (inactive)
UACC-62
  GI50: > 75 µM (inactive)
UO-31
  GI50: 46.9 µM (inactive)
